Reference: ChEMBL document CHEMBL5360622, “Leucettinibs, a Class of DYRK/CLK Kinase Inhibitors Inspired by the Marine Sponge Natural Product Leucettamine B” (J Med Chem, 2023)

Experiments:
[1] = molecular target: Dual specificity protein kinase CLK3 (Homo sapiens, UniProt P49761); format: cell-based, Sf9
[2] = molecular target: Casein kinase I isoform epsilon (Homo sapiens, UniProt P49674)
[3] = molecular target: T1, Dual specificity tyrosine-phosphorylation-regulated kinase 4 (Homo sapiens, UniProt Q9NR20)
T1 sequence (Q9NR20 whole entry): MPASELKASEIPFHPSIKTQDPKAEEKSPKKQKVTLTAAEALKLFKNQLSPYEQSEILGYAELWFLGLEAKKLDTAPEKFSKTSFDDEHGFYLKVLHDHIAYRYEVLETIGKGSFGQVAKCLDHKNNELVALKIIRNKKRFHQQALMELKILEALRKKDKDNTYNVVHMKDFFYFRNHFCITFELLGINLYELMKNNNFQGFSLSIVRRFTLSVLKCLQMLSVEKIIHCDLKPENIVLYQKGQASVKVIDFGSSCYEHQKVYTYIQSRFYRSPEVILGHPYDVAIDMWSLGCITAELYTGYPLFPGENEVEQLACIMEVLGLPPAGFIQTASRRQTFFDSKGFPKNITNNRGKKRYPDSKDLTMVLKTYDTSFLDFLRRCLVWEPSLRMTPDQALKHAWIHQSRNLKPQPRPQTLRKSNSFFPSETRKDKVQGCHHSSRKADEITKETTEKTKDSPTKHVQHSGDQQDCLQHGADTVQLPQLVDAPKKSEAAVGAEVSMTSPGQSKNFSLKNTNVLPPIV

[4] = molecular target: Dual specificity protein kinase CLK2 (Homo sapiens, UniProt P49760)
Chain of Dual specificity protein kinase CLK2 (P49760 whole entry): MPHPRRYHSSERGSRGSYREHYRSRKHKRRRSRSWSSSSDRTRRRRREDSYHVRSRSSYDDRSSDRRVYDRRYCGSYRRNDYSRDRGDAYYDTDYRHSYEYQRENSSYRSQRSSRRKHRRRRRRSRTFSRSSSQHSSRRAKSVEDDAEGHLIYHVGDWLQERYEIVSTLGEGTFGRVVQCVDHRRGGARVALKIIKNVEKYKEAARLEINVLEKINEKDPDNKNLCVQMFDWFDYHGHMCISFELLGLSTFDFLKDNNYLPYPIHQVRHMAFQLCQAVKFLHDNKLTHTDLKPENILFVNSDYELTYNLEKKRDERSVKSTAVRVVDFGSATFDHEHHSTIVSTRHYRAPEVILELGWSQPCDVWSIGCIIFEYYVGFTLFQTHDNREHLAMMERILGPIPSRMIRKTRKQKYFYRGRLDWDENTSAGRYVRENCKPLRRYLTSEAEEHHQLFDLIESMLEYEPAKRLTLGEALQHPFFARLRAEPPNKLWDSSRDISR

[5] = molecular target: T2, Dual specificity tyrosine-phosphorylation-regulated kinase 3 (Homo sapiens, UniProt O43781)
T2 sequence (O43781 whole entry): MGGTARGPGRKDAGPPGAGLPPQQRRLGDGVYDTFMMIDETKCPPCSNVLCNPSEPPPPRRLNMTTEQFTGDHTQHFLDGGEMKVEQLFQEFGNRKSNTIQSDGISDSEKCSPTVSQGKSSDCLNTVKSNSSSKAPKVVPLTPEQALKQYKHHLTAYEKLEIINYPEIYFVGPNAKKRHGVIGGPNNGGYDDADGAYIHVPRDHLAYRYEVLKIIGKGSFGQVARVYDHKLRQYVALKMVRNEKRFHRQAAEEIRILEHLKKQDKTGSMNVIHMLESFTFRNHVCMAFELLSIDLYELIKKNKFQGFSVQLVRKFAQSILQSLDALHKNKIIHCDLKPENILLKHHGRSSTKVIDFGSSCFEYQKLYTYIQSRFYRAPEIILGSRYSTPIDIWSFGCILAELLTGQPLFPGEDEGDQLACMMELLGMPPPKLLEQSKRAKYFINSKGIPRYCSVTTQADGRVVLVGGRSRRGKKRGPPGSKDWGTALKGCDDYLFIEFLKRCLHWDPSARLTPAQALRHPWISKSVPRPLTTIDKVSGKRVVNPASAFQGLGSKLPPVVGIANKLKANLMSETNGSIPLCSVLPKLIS

[6] = molecular target: Cyclin-dependent kinase 5/CDK5 activator 1 (Homo sapiens, UniProt Q00535); format: cell-based, Sf9
Chain of Cyclin-dependent kinase 5/CDK5 activator 1 (Q00535 whole entry): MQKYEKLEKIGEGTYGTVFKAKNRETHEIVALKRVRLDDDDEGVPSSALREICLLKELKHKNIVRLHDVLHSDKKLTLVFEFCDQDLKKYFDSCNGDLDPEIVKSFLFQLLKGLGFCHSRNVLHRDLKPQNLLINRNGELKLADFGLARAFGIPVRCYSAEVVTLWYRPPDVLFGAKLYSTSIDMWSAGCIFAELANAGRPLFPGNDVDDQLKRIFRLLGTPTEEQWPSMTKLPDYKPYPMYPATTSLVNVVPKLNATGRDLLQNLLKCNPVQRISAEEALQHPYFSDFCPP
Chain of Cyclin-dependent kinase 5/CDK5 activator 1 (Q15078 whole entry, further chain): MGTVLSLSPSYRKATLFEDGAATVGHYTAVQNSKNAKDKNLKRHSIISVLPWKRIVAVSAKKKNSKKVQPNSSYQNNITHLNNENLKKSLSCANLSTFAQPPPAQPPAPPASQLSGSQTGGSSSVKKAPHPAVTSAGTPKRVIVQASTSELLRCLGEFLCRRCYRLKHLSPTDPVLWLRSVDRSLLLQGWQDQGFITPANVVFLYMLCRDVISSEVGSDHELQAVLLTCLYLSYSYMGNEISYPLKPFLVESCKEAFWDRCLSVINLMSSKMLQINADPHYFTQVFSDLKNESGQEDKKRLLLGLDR

[7] = molecular target: Glycogen synthase kinase-3 beta (Homo sapiens, UniProt P49841); format: cell-based, Sf9
Chain of Glycogen synthase kinase-3 beta (P49841 whole entry): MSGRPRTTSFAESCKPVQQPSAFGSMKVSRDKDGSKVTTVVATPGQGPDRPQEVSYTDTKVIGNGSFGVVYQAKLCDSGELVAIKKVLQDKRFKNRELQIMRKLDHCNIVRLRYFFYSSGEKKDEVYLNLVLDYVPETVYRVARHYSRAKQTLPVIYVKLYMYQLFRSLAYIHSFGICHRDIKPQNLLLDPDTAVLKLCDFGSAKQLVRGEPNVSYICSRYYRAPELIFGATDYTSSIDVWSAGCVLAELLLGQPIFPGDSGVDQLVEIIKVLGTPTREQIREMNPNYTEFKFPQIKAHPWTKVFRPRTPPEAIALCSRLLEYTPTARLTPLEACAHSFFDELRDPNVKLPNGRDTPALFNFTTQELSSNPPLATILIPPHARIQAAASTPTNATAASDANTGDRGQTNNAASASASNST

[8] = molecular target: T3, Dual specificity tyrosine-phosphorylation-regulated kinase 2 (Homo sapiens, UniProt Q92630)
T3 sequence (Q92630 whole entry): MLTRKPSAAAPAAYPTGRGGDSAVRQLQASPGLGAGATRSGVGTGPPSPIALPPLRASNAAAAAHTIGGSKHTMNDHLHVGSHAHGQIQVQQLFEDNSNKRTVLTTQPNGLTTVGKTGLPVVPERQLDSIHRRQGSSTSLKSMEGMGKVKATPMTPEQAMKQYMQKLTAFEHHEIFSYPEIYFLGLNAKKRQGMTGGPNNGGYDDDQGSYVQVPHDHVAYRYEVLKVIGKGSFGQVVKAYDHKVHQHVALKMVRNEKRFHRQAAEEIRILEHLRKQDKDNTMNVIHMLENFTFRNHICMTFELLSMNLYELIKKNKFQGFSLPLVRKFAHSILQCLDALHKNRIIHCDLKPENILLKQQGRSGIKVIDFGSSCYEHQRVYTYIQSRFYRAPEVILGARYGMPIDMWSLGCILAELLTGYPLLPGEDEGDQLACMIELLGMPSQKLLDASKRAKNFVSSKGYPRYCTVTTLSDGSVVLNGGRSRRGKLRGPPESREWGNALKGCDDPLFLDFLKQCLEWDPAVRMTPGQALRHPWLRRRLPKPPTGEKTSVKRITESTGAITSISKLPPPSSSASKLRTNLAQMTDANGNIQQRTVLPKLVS

Chain of Dual specificity protein kinase CLK3 (P49761 whole entry, canonical isoform): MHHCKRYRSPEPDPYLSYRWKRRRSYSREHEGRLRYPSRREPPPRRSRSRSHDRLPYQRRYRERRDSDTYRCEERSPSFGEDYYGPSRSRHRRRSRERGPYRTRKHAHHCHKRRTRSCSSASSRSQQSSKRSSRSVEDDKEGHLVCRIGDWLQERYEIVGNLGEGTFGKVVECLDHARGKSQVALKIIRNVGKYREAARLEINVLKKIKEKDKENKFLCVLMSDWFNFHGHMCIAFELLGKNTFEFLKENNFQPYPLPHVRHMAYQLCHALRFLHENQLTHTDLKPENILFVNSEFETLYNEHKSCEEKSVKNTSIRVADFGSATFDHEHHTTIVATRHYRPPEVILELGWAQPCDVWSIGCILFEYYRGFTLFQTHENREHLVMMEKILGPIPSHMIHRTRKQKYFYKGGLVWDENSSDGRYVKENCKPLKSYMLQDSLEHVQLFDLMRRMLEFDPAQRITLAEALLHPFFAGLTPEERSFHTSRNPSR
Chain of Casein kinase I isoform epsilon (P49674 whole entry, canonical isoform): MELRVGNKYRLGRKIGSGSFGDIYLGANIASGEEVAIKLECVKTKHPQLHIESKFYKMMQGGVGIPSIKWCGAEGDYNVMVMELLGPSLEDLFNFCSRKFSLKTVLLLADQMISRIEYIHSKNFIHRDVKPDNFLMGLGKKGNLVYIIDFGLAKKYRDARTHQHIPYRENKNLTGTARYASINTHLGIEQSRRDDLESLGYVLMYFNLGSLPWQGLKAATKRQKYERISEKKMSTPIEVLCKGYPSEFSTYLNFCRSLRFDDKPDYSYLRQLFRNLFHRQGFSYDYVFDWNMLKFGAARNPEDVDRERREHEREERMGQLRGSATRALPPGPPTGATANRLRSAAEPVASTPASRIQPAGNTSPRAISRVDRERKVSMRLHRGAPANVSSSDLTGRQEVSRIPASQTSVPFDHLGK

Structure (SMILES) | IC50 [1] [µM] | IC50 [2] [µM] | IC50 [3] [µM] | IC50 [4] [µM] | IC50 [5] [µM] | IC50 [6] [µM] | IC50 [7] [µM] | IC50 [8] [µM]
COC(CNC1=N/C(=C\c2ccc3ncsc3c2)C(=O)N1)c1ccccc1 (racemic) | 0.27 | > 10 | 1.56 | 0.148 | 1.51 | > 10 | 4.31 | 0.352
O=C1NC(N[C@@H]2CCCOC2)=N/C1=C\c1ccc2ncsc2c1 | 0.604 | > 10 | 1.85 | 0.236 | 1.64 | > 10 | 9.2 | 1.18
O=C1NC(N[C@H]2C3CC4CC2C[C@](O)(C4)C3)=N/C1=C\c1ccc2ncsc2c1 | 0.626 | 9.8 | 0.321 | 0.011 | 0.122 | 2.3 | 5.37 | 0.296
Cc1ccc(CNC2=N/C(=C\c3ccc4ncsc4c3)C(=O)N2)c(C)c1 | 0.518 | > 10 | 9.22 |  | 4.2 | > 10 | > 10 | 
O=C1NC(NC2CCC(F)(F)C2)=N/C1=C\c1ccc2ncsc2c1 (racemic) | 0.173 | > 10 | 0.326 | 0.039 | 0.299 | 5.5 | 4.69 | 0.389
O=C1NC(NC2CCCCOC2)=N/C1=C\c1ccc2ncsc2c1 (racemic) | 0.428 | > 10 | 0.383 | 0.051 | 0.495 | 3.89 | 2.77 | 0.704
CC1(C)CCC(NC2=N/C(=C\c3ccc4ncsc4c3)C(=O)N2)CO1 (racemic) | 0.357 | > 10 | 0.574 | 0.102 | 0.692 | > 10 | 4.75 | 0.26
CN1CCN(c2cnc(NC3=N/C(=C\c4ccc5ncsc5c4)C(=O)N3)nc2)CC1 | 5.1 | > 10 | > 10 | 0.997 | 0.45 | > 10 | > 10 | 7.48
C[C@@H]1[C@H]2C[C@@H](C[C@H]1NC1=N/C(=C\c3ccc4ncsc4c3)C(=O)N1)C2(C)C | 0.795 | > 10 | 0.719 |  | 1.01 | > 10 | > 10 | 
CO[C@@H]1CCCC[C@H]1NC1=N/C(=C\c2ccc3ncsc3c2)C(=O)N1 | 0.382 |  | 0.551 | 0.31 | 1.36 | > 10 | > 10 | 0.342
CO[C@H]1CCCC[C@@H]1NC1=N/C(=C\c2ccc3ncsc3c2)C(=O)N1 | 0.628 |  | 0.439 | 0.1 | 1.2 | > 10 | 8.75 | 0.777
O=C1NC(NCC(O)Cc2ccccc2)=N/C1=C\c1ccc2ncsc2c1 (racemic) | 0.472 | > 10 | 0.288 | 0.089 | 1.17 | > 10 | 4.81 | 0.527
O=C1NC(NC(CO)C2CCCCC2)=N/C1=C\c1ccc2ncsc2c1 (racemic) | 1.09 | > 10 | 0.41 | 0.08 | 0.695 | > 10 | 4.16 | 1.38
Cc1csc(CNC2=N/C(=C\c3ccc4ncsc4c3)C(=O)N2)n1 | 0.376 | > 10 | 0.954 | 0.033 | 1.8 | > 10 | 2.15 | 
O=C1NC(Nc2ccccn2)=N/C1=C\c1ccc2ncsc2c1 | 0.211 | > 10 |  | 0.117 | 0.35 | > 10 | 1.66 | 0.256
O=C1NC(N[C@H]2CCCOC2)=N/C1=C\c1ccc2ncsc2c1 | 0.119 | > 10 | 0.57 | 0.162 | 0.611 | 5.9 | > 10 | 0.109
O=C1NC(NC2CCCCC2(F)F)=N/C1=C\c1ccc2ncsc2c1 (racemic) | 0.127 | > 10 | 0.143 | 0.028 | 0.119 | > 10 | 5.56 | 
O=C1NC(NC2CCCC(F)(F)C2)=N/C1=C\c1ccc2ncsc2c1 (racemic) | 0.175 | 8.46 | 0.321 | 0.024 | 0.296 | 2.38 | 5.69 | 0.391
O=C1NC(NCc2ccncc2)=N/C1=C\c1ccc2ncsc2c1 | 1.23 | > 10 | 1.24 | 0.109 | 1.03 | > 10 | 3.26 | 0.613
O=C1NC(NC2CC23CCCCC3)=N/C1=C\c1ccc2ncsc2c1 (configuration not stated) | 0.341 | > 10 | 0.938 |  | 0.343 | > 10 | 0.854 | 0.355
O=C1NC(N[C@@H]2CCCC[C@H](O)C2)=N/C1=C\c1ccc2ncsc2c1 (racemic) | 0.646 |  | 0.698 |  | 0.753 | > 10 | 6.04 | 0.174
O=C1NC(N[C@@H]2CCCC[C@@H](O)C2)=N/C1=C\c1ccc2ncsc2c1 (racemic) | 0.309 |  | 1.25 |  | 0.706 | > 10 | 4.37 | 0.258
O=C1NC(Nc2cccc(OC(F)F)c2)=N/C1=C\c1ccc2ncsc2c1 | 0.71 |  | 2.73 | 0.134 | 0.706 | > 10 | 3.68 | 0.76
O=C1NC(NCc2ccccc2C(F)(F)F)=N/C1=C\c1ccc2ncsc2c1 | 0.135 | > 10 | 2.55 | 0.015 | 0.434 | > 10 | 6.92 | 
CC(C)(C)OC(=O)N1CCC(CNC2=N/C(=C\c3ccc4ncsc4c3)C(=O)N2)CC1 | 8.62 | > 10 | > 10 | 2.2 | > 10 | > 10 | 5.27 | 
CO[C@H]1CCCC[C@H]1NC1=N/C(=C\c2ccc3ncsc3c2)C(=O)N1 (racemic) | 1.13 |  | 0.731 | 0.648 | 1.06 | > 10 | 9.54 | 1.57
O=C1NC(N[C@@H](CO)CC2CCC2)=N/C1=C\c1ccc2ncsc2c1 | 0.72 | > 10 | 1.67 |  | 1.25 | > 10 | 2.41 | 1.91
